This note sets out measurements from PMC5109050, “Structure and Function of Cyanobacterial DHDPS and DHDPR” (Scientific Reports, 2016).

The target of experiment [1] is dihydrodipicolinate synthase from Anabaena variabilis (Anabaena variabilis) (UniProt N8VIX7). Description: AUC; sedimentation velocity, 20 °C, 40,000 rpm, absorbance at 230 nm, initial concentrations 0.1-7.0 μM (size-distribution analysis at 4.0 μM); single species, tetramer.
Experiment [2] addresses dihydrodipicolinate reductase from Anabaena variabilis (Anabaena variabilis) (UniProt N8WZH2). Described as above.
Another experiment deals with T1, Vv-DHDPS (Vitis vinifera, UniProt D7U7T8).
T1 construct: gene VIT_15s0048g00750; control enzyme; construct not described here
T1 sequence (D7U7T8 40-365 limits assumed): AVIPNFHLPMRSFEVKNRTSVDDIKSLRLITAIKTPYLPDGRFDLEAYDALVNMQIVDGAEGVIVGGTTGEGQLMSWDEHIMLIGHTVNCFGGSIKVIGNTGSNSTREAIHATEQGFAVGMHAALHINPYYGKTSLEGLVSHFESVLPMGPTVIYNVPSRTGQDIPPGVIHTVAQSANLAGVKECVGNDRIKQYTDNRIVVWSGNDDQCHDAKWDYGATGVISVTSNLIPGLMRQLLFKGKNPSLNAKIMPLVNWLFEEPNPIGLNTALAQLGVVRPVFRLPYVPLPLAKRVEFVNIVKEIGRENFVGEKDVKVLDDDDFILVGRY
Description: DHDPS-DHDPR coupled assay, dose response, four-parameter logistic. In kind it is biochemical. As to conditions: 30 °C; allosteric feedback inhibitor; control enzyme.

A further experiment deals with T2, Ec-DHDPS (Escherichia coli, UniProt P0A6L2).
T2 construct: gene dapA; control enzyme; construct not described here
T2 sequence (P0A6L2 1-292): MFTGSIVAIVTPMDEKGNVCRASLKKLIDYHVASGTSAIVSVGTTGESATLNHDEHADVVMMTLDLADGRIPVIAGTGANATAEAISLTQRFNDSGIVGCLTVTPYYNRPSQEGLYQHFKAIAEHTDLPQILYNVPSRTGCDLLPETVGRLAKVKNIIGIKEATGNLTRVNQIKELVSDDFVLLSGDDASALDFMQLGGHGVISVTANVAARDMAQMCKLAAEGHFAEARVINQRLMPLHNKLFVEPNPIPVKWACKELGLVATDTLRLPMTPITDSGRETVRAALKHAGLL
The experiment is described as above. The format is biochemical.

Experiment [3] concerns the target T3, Av-DHDPS (Trichormus variabilis, UniProt Q3M723).
T3 construct: gene dapA; synthetic codon-optimised dapA in pRSET-A, His-tagged, E. coli BL21-DE3 pLysS, IMAC; homotetramer 147 kDa; monomer of 297 residues in crystal; active-site Lys164
The description is as above. The format is biochemical. From the text: DHDPS-DHDPR coupled assay, dose response, four-parameter logistic on Av-DHDPS

Another experiment addresses T4, Av-DHDPR (Trichormus variabilis, UniProt Q3MFY8).
T4 construct: gene dapB; synthetic codon-optimised dapB in pRSET-A, His-tagged, E. coli BL21-DE3 pLysS, IMAC; homotetramer 139 kDa; monomer of 287 residues in crystal
T4 sequence (Q3MFY8 2-278): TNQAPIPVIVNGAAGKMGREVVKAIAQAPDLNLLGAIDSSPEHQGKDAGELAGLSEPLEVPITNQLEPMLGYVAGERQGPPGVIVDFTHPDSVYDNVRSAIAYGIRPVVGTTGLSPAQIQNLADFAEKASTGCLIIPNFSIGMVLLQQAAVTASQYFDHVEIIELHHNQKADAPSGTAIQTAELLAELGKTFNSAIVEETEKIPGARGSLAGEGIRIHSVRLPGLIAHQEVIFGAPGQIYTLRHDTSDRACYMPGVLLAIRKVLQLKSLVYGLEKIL
Description: microscale thermophoresis, label-free, single-site fit. In kind it is binding. On the technique in general: In MST a laser heats a spot of the sample, and binding alters the fluorescence response.

Experiment [4] deals with T3, Av-DHDPS. Description: X-ray crystallography, […] Å. In kind it is binding. As to conditions: covalent; bound to Lys164 in active site; crystallised with 10 mM pyruvate, pH 6.5.

T3 sequence (Q3M723 entry or part of it): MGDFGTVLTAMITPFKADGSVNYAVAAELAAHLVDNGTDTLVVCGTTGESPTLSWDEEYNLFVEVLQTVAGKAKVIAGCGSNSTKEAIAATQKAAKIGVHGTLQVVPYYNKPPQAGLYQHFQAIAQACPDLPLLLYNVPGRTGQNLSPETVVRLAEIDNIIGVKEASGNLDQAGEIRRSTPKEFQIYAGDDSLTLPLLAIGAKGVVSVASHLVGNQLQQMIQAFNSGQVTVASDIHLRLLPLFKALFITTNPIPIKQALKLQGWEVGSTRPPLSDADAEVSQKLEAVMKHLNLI

By stoichiometry N is commonly meant a count of units in the complex or per binding partner. As to “dihydrodipicolinate synthase from Anabaena variabilis (from UniProt N8VIX7 1-299) (enzyme)”, the stoichiometry N in experiment [1] came to 4. On to “dihydrodipicolinate reductase from Anabaena variabilis (from UniProt N8WZH2 1-273) (enzyme)”, for which the stoichiometry N in experiment [2] came out at 4. What is called IC50 is the concentration at which inhibition is half-maximal. A higher IC50 goes with lower potency. With `NCCCC[C@H](N)C(=O)O` [(S)-lysine], the half-maximal inhibitory concentration (IC50) is 30 µM at Vv-DHDPS, 210 µM on Ec-DHDPS and 68 µM against Av-DHDPS [3]. In general, Kd refers to the equilibrium constant for the complex coming apart. The compound `O=C(O)c1cccc(C(=O)O)n1` [2,6-pyridinedicarboxylate] gave a Kd at Av-DHDPR of 100 ± 8.2 µM.

Take `CC(=O)C(=O)O` [pyruvate]: the “X-ray crystallography, 1.92 Å” value at Av-DHDPS [4] was “Shown in purple is the substrate pyruvate bonded to Lys164 in Av-DHDPS”.
